Values of other authors in patent US9060510B2 (priority 2005, dated 2015).
Like-named read-outs stand apart in the source and are kept apart here.

CCN(Cc1ccc(Cl)nc1)/C(=C/[N+](=O)[O-])NC [Nitempyram, (E)-N-(6-chloro-3-pyridylmethyl)-N-ethyl-N′-methyl-2-nitrovinylidenediamine]
water-solubility (at pH 7.0, 20° C.): > 590 mg/mL

(E)-1-(2-chloro-1,3-thiazol-5-yl)-3-methyl-2-nitroguanidine [Clothianidin]
water-solubility (at pH 4.0, 20° C.): 0.304 mg/mL
